Two compounds from patent US11339158B2, “Crystalline form of valbenazine ditosylate, processes for preparation thereof and use thereof” (Crystal Pharmaceutical (Suzhou) Co., Ltd., priority 2017, dated 2022) can be followed below.

≈ marks a conversion by molar mass, not a printed value. Entries after “also recorded” stand apart in the source; their conditions may differ. Like-named read-outs stand apart in the source and are kept apart here.

Holding throughout (type): physicochemical
Data set [1] is described as follows: Kinetic solubility in FaSSIF and FeSSIF. The conditions noted are these: for solubility kinetic at 15 min / solubility kinetic at 30 min / solubility kinetic at 1 h: thermodynamic from solid, read-out: Kinetic solubility (concentration of saturated solution); for Kinetic solubility (concentration of saturated solution): listed as Prior art Form I. The method, then:
High Performance Liquid Chromatography (HPLC) data in the present disclosure were collected from an Agilent 1260 with Diode Array Detector (DAD).
The HPLC method parameters for solubility test and dissolution tests in the present disclosure are as follows: • 1. Column: Waters XBridge C18 150×4.6 mm, 5 μm • 2. Mobile Phase: A: 0.1% TFA in H2O • B: 0.1% TFA in Acetonitrile
• 3. Flow rate: 1.0 mL/min • 4. Injection Volume: 10 μL • 5. Detection wavelength: 230 nm • 6. Column Temperature: 40° C. • 7. Diluent: Acetonitrile: H2O (v:v)=50:50
Simulated intestinal fluids, such as FaSSIF (fasted state simulated intestinal fluids) and FeSSIF (fed state simulated intestinal fluids) are biorelevant media. These media can better reflect the drug release affected by gastrointestinal environment. Solubility in such media is close to in vivo solubility.
20 mg of Form A in the present disclosure and 20 mg of prior art Form I were suspended in 1.5 mL of FaSSIF and 1.5 mL of FeSSIF to get saturated solutions. After equilibrium for 15 minutes, 30 minutes and 1 hour, concentrations of the saturated solutions (mg/mL) were measured by HPLC.

Data set [2] can be described thus: Hygroscopicity (Chinese Pharmacopoeia 2015, general notice 9103). The note with it: for Percentage gain (weight gain, hygroscopicity): 25±1° C., relative humidity 80%±2%, 24 hours. The method, then:
The hygroscopicity experiment was conducted according to general notice 9103 drug hygroscopicity test guidelines in 2015 edition of Chinese Pharmacopoeia. The methods are listed as follows: • 1. A dry weighing bottle with a stopper (outer diameter is 50 mm and the height is 15 mm) was placed in a suitable desiccator at constant temperature of 25±1° C. (saturated solution of ammonium chloride or ammonium sulfate was placed in the lower compartment) or the a man-made climate chamber (the temperature is set as 25°±C. 1° C. and the relative humidity is 80%±2%) the day before the test. The weight is accurately weighed (m1). • 2. A suitable amount of the sample was spread into the weighing bottle. The thickness of the sample is generally about 1 mm, and the weight is accurately weighed (m2). • 3. The weighing bottle was kept open and placed under the same constant temperature and humidity mentioned above for 24 hours as well as the stopper. • 4. T The stopper was put on the weighing bottle, and then the weighing bottle with stopper was accurately weighed (m3).
The hygroscopicity of Form A in the present disclosure and Form I in prior art was tested.

A short description of data set [3]: Stability of Form A drug substance (XRPD and HPLC). The conditions noted are these: for Change in solid form: XRPD; for Change in purity %: HPLC. As for the experimental part:
Four samples of Form A in the present disclosure was stored under different conditions of 25° C./60% RH in open and closed dishes for 3 months, 40° C./75% RH in closed dish for 3 months and 60° C./75% RH in closed dish for 1 week. Crystalline form and chemical impurity were checked by XRPD and HPLC, respectively.

The nature of data set [4]: Mechanical stability (tableting at 15 kN, XRPD). The note with it: compressed at 15 kN, held 1 minute. The method, then: About 0.1 g of Form A was added into a die, compressed at 15 kN, and held for 1 minute. And then the pressure was released and the sample in the die was taken out for XRPD test. […] The XRPD pattern is substantially as depicted in FIG. 9.
A short description of data set [5]: Crystalline form after formulation process (XRPD of capsule). The note with it: Form A in capsule. As for the experimental part: The preparation process is described in Table 8.
The crystalline form of Form A in capsule was tested by XRPD. […] The XRPD pattern is substantially as depicted in FIG. 10.

Data set [6] can be described thus: Compressibility (tensile strength). The note with it: Φ6 mm round tooling, 80 mg, 10 kN; for Tensile strength (MPa): T=2H/πDL; for Diameter (mm) / Thickness (mm): after 24 h. As for the experimental part:
A manual tablet press was used for compression. A certain amount of Form A and prior art Form I were added into the dies of round tooling (Ensuring the isotropy of the tablet), compressed at suitable pressure, and then stored at room temperature for 24 h until complete elastic recovery. Hardness (H) was tested with Intelligent Tablet Hardness Tester. Diameter (D) and thickness (L) were tested with caliper. Tensile strength of the powder was calculated with the following formula: T=2H/πDL. Under a certain force, the greater the tensile strength, the better the compressibility.

The nature of data set [7]: Flowability (compressibility index / Carr Index). The note with it: for Carr Index: c=(ρf−ρ0)/ρf; for Flowability: criteria of ICH Q4B Annex 13. The method, then:
Compressibility index or Carr Index is usually utilized to evaluate the flowability of powder and granules during the drug product process. Compressibility index test method is as follows: a certain amount of powder was added into a measuring cylinder and bulk volume was recorded. Then the powder was tapped to make it in the tightest state and the tapped volume was recorded. The bulk density (ρ0), tapped density (ρf) were calculated and compressibility index was calculated according to c=(ρf−ρ0)/ρf.

A short description of data set [8]: Adhesiveness (material sticking to the punch). The note with it: for Cumulative amount (mg) sticking to the punch / Maximum amount (mg) sticking to the punch: 30 mg, φ8 mm round tooling, 10 kN, 30 s, repeated compression. As for the experimental part: 30 mg of Form A and Form I in prior art were added into the dies of φ8 mm round tooling, compressed at 10 kN and held for 30 s. The punch was weighed and amount of material sticking to the punch was calculated. The compression was repeated several times to record the cumulative amount, maximum amount and average amount of material sticking to the punch during compression process.

Where [9] appears, read: 25° C./60% RH in open dish, 3 months.
[10] abbreviates: 40° C./75% RH in closed dish, 3 months.
Where [11] appears, read: 60° C./75% RH in closed dish, 1 week.

As for `COc1cc2c(cc1OC)[C@H]1C[C@@H](OC(=O)[C@@H](N)C(C)C)[C@H](CC(C)C)CN1CC2` [Form A, (S)-2-amino-3-methyl-butyric acid (2R,3R,11bR)-3-isobutyl-9,10-dimethoxy-1,3,4,6,7,11b-hexahydro-2H-pyrido[2,1-a]isoquinolin-2-yl ester], the solubility kinetic at 15 min was determined as 31.4 mg/mL (≈ 75.1 mM) in data set [1] (FaSSIF, FaSSIF, 15 minutes) and 41.9 mg/mL (≈ 100 mM) in data set [1] (FeSSIF, FeSSIF, 15 minutes). Besides, the solubility kinetic at 30 min in data set [1] (FaSSIF, FaSSIF, 30 minutes) was found to be 31.3 mg/mL (≈ 74.8 mM); in data set [1] (FeSSIF, FeSSIF, 30 minutes), 41.7 mg/mL (≈ 99.5 mM). The solubility kinetic at 1 h is 31.8 mg/mL (≈ 76 mM) in data set [1] (FaSSIF, FaSSIF, 1 hour) and 41.3 mg/mL (≈ 98.6 mM) in data set [1] (FeSSIF, FeSSIF, 1 hour). Moreover, the “Solubility of Form A relative to prior art Form I” value in data set [1] (FeSSIF) amounted to 1.23 times. In data set [2] (Chinese Pharmacopoeia hygroscopicity test), the “Hygroscopicity relative to prior art form” value is 3/5. The “Time physically and chemically stable” value in data set [3] (25° C./60% RH in closed dish), in data set [3] (25° C./60% RH in open dish) and in data set [3] (40° C./75% RH in closed dish) was “at least 3 months” in each case. In addition, the “Change in solid form” value in data set [3] (25° C./60% RH in closed dish, 3 months) was “doesn't change; also recorded: No form change”; in data set [3] (setting [9]), “doesn't change; also recorded: No form change”; in data set [3] (setting [10]), “doesn't change; also recorded: No form change”; in data set [3] (setting [11]) it was “doesn't change; also recorded: No form change”. Also, the “Change in purity %” value in data set [3] (setting [9]) was 0.03%; in data set [3] (setting [10]), 0.09%; in data set [3] (setting [11]), 0.08%. In addition, in data set [3] (60° C./75% RH in closed dish), the Time stable result is “at least 1 week”. In data set [4], the “Form change after tableting” value is listed as “doesn't change; also recorded: no form change is observed”. For the same compound, the “Form change of Form A after formulation process” value in data set [5] is “no form change was observed; also recorded: doesn't change”. In addition, in data set [6], the “Tensile strength (MPa)” value is 1.36 MPa. Also, in data set [6], the “Diameter (mm)” value came to 6.11 mm. Further, the “Thickness (mm)” value in data set [6] came out at 2.33 mm. In addition, the “Bulk density” value in data set [7] was determined as 0.179 g/mL. In addition, in data set [7], the “Tap density” value was determined as 0.209 g/mL. Besides, the “Carr Index” value in data set [7] is given as 14%. Further, the Flowability entry in data set [7] is recorded as “Good (11-15)”. The “Cumulative amount (mg) sticking to the punch” value in data set [8] came to 0.06 mg. Further, the “Maximum amount (mg) sticking to the punch” value in data set [8] is listed as 0.17 mg.

Consider `COc1cc2c(cc1OC)[C@H]1C[C@@H](OC(=O)[C@@H](N)C(C)C)[C@H](CC(C)C)CN1CC2` [Form I, (S)-2-amino-3-methyl-butyric acid (2R,3R,11bR)-3-isobutyl-9,10-dimethoxy-1,3,4,6,7,11b-hexahydro-2H-pyrido[2,1-a]isoquinolin-2-yl ester, reference compound], for which, in data set [1] (FaSSIF, 15 minutes), the “Kinetic solubility (concentration of saturated solution)” value (from here on “Kinetic solubility”) was 30.637 mg/mL. Also, the “Kinetic solubility” value in data set [1] (FaSSIF, 30 minutes) is 30.189 mg/mL. Besides, the “Kinetic solubility” value in data set [1] (FaSSIF, 1 hour) amounted to 31.010 mg/mL. Further, the “Kinetic solubility” value in data set [1] (FeSSIF, 15 minutes) is on record as 34.054 mg/mL. Besides, the “Kinetic solubility” value in data set [1] (FeSSIF, 30 minutes) was found to be 34.628 mg/mL. The “Kinetic solubility” value in data set [1] (FeSSIF, 1 hour) is on record as 35.012 mg/mL. For the same compound, the “Percentage gain (weight gain, hygroscopicity)” value in data set [2] (listed as Form I in prior art) stood at 0.40%. For the same compound, the “Percentage gain (weight gain, hygroscopicity)” value in data set [2] (listed as prior art Form I) amounted to 0.40%. Further, in data set [6], the “Tensile strength (MPa)” value amounted to 0.86 MPa, the “Diameter (mm)” value is on record as 6.04 mm and the “Thickness (mm)” value is on record as 2.30 mm. In data set [7], the “Bulk density” value was 0.144 g/mL, the “Tap density” value came to 0.174 g/mL, the “Carr Index” value amounted to 17% and the Flowability entry is on record as “Fair (16-20)”. Further, in data set [8], the “Maximum amount sticking to the punch, Form I relative to Form A” value was “more than 3 times”; the “Cumulative amount (mg) sticking to the punch” value was 0.21 mg; the “Maximum amount (mg) sticking to the punch” value was 7.58 mg.
